ChEMBL document CHEMBL1201862, “PubChem BioAssay data set” (2004)
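Values below derive from 48-hour exposures of cells grown in 96-well plates, with endpoints linearly interpolated between the two concentrations bracketing the appropriate inhibition level. GI50 marks 50% less growth.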 Active and inactive are the calls of the source. Rule as the data show it: active = GI50 up to about 1.1 µM and inactive = higher.

Tests used:
Assay in all cases: NCI anticancer screen, dose series, 48 h
LXFL 529 = test system: LXFL 529
XF498 = test system: XF498
DLD-1 = test system: DLD-1
RXF 631 = test system: RXF 631
DMS-114 = test system: DMS-114
SNB-78 = test system: SNB-78
HOP-18 = test system: HOP-18
KM-20L2 = test system: KM-20L2
M19-MEL = test system: M19-MEL

Row | Compound | GI50 (LXFL 529) | GI50 (XF498) | GI50 (DLD-1) | GI50 (RXF 631) | GI50 (DMS-114) | GI50 (SNB-78) | GI50 (HOP-18) | GI50 (KM-20L2) | GI50 (M19-MEL)
1 | COc1cc2cc(OC(C)=O)c3cc4c(cc3c2c(OC)c1OC)OCO4 | > 100 µM (inactive) | > 100 µM (inactive) | > 100 µM (inactive) | > 100 µM (inactive) | > 100 µM (inactive) | > 100 µM (inactive) | > 100 µM (inactive) | > 100 µM (inactive) | > 100 µM (inactive)
2 | CC1(C)C(c2ccccc2)C12CCC1(C2=O)C(c2ccccc2)C1(C)C (configuration not stated) | 31.5 µM (inactive) | 18.7 µM (inactive) | – | – | 17.9 µM (inactive) | 24.6 µM (inactive) | – | 20.3 µM (inactive) | 24.6 µM (inactive)
3 | O=C1c2cccc3cc([N+](=O)[O-])cc(c23)C(=O)N1NC1=NCCN1 | > 100 µM (inactive) | > 100 µM (inactive) | > 100 µM (inactive) | > 100 µM (inactive) | > 100 µM (inactive) | > 100 µM (inactive) | > 100 µM (inactive) | > 100 µM (inactive) | > 100 µM (inactive)
4 | C=CCOCCCCC(C(C)=O)C(=O)OC (configuration not stated) | > 100 µM (inactive) | > 100 µM (inactive) | > 100 µM (inactive) | – | – | > 100 µM (inactive) | > 100 µM (inactive) | > 100 µM (inactive) | > 100 µM (inactive)
5 | Cc1cc(Cl)ccc1NC(=O)CC1SC(N)=NC1=O (configuration not stated) | > 100 µM (inactive) | – | > 100 µM (inactive) | > 100 µM (inactive) | > 100 µM (inactive) | – | > 100 µM (inactive) | > 100 µM (inactive) | > 100 µM (inactive)
6 | O=C1c2ccccc2C(=O)c2sc(Nc3ccc(Cl)c(Cl)c3)nc21 | 1.82 µM (inactive) | 2.54 µM (inactive) | 2.15 µM (inactive) | 7.98 µM (inactive) | 1.67 µM (inactive) | 2.52 µM (inactive) | 5.06 µM (inactive) | 19.5 µM (inactive) | 1.12 µM (inactive)
7 | N=C(NC(=S)N1CCCCC1)N1CCCCC1 | > 100 µM (inactive) | > 100 µM (inactive) | > 100 µM (inactive) | – | > 100 µM (inactive) | > 100 µM (inactive) | > 100 µM (inactive) | > 100 µM (inactive) | > 100 µM (inactive)
8 | C(=C\c1ccc2ccccc2c1Nc1ccccc1)/c1ccccc1 | > 73.1 µM (inactive) | 18.4 µM (inactive) | 17.3 µM (inactive) | – | 38.8 µM (inactive) | 38.6 µM (inactive) | 26.4 µM (inactive) | 45.1 µM (inactive) | > 92.7 µM (inactive)
9 | O=C1[C@@H](c2ccc(Cl)cc2)[C@H]2CC=C[C@H]2N1O | > 100 µM (inactive) | > 100 µM (inactive) | > 100 µM (inactive) | 39.7 µM (inactive) | 41.5 µM (inactive) | > 100 µM (inactive) | – | – | > 100 µM (inactive)
10 | CC1(C)O[C@H]2[C@H](O)C[C@](O)(CO)C[C@H]2O1 | > 100 µM (inactive) | – | > 100 µM (inactive) | > 100 µM (inactive) | > 100 µM (inactive) | > 100 µM (inactive) | – | > 100 µM (inactive) | > 100 µM (inactive)
11 | CC1=C2C(c3ccccc3)(c3ccccc3)C3C=CC2(C=N3)N(C(=O)NC2CCCCC2)C1=O (configuration not stated) | 16.6 µM (inactive) | – | – | 12.7 µM (inactive) | 17.9 µM (inactive) | 16.3 µM (inactive) | 18.7 µM (inactive) | 16.8 µM (inactive) | –
12 | CCNC1=Nc2ccc(Cl)cc2C(c2ccccc2)=NN1 | – | 25.8 µM (inactive) | – | 19.9 µM (inactive) | 15.4 µM (inactive) | 25.5 µM (inactive) | 62.2 µM (inactive) | – | 18.1 µM (inactive)
13 | COC(=O)c1cc2c(nc1C)-c1ccccc1OS2(=O)=O | > 100 µM (inactive) | 56.6 µM (inactive) | > 100 µM (inactive) | > 100 µM (inactive) | > 100 µM (inactive) | 82.8 µM (inactive) | – | > 100 µM (inactive) | > 100 µM (inactive)
14 | CSc1nc2c(c(O)c(C)c(=O)n2C2OC(COC(C)=O)C(OC(C)=O)C(OC(C)=O)C2OC(C)=O)c(=O)n1C (configuration not stated) | > 100 µM (inactive) | > 100 µM (inactive) | > 100 µM (inactive) | > 100 µM (inactive) | > 100 µM (inactive) | > 100 µM (inactive) | > 100 µM (inactive) | > 100 µM (inactive) | –
15 | C/C(CCn1[nH]c(=O)ccc1=O)=N\Nc1ccc([N+](=O)[O-])cc1[N+](=O)[O-] | 14.6 µM (inactive) | > 100 µM (inactive) | > 100 µM (inactive) | > 100 µM (inactive) | 81.8 µM (inactive) | > 100 µM (inactive) | > 100 µM (inactive) | 33.7 µM (inactive) | > 100 µM (inactive)
16 | N=C1OC(c2cccc(Cl)c2)C(NNS(=O)(=O)c2ccccc2)=C1O (configuration not stated) | 16.8 µM (inactive) | – | 15 µM (inactive) | – | 17.9 µM (inactive) | 27.4 µM (inactive) | > 100 µM (inactive) | 39.4 µM (inactive) | 24 µM (inactive)
17 | Cc1ccc(C2=C(c3ccccc3)C(O)(c3ccccc3)C(c3ccccc3)=C2c2ccc(C)cc2)cc1 | > 100 µM (inactive) | 44.5 µM (inactive) | > 100 µM (inactive) | > 100 µM (inactive) | – | > 100 µM (inactive) | > 100 µM (inactive) | > 100 µM (inactive) | > 100 µM (inactive)
18 | CC(C)(C)c1cc(-c2c3nc(c(-c4cc(C(C)(C)C)cc(C(C)(C)C)c4)c4ccc([nH]4)c(-c4cc(C(C)(C)C)cc(C(C)(C)C)c4)c4nc(c(-c5cc(C(C)(C)C)cc(C(C)(C)C)c5)c5ccc2[nH]5)C=C4)C=C3)cc(C(C)(C)C)c1 | > 100 µM (inactive) | > 100 µM (inactive) | > 100 µM (inactive) | > 100 µM (inactive) | > 100 µM (inactive) | > 100 µM (inactive) | > 100 µM (inactive) | > 100 µM (inactive) | –
19 | ON=C1CCC(c2ccccc2)CC1 (configuration not stated) | > 100 µM (inactive) | > 100 µM (inactive) | > 100 µM (inactive) | – | > 100 µM (inactive) | > 100 µM (inactive) | > 100 µM (inactive) | > 100 µM (inactive) | > 100 µM (inactive)
20 | O=[N+]([O-])c1c(/C=N/c2ccccc2)oc(-c2ccc3c(c2)OCO3)c1-c1ccc2c(c1)OCO2 | > 100 µM (inactive) | > 100 µM (inactive) | > 100 µM (inactive) | > 100 µM (inactive) | 60.7 µM (inactive) | > 100 µM (inactive) | – | > 100 µM (inactive) | > 100 µM (inactive)
21 | CN1CCC(=O)/C(=C/c2ccccc2)C1 | 6.32 µM (inactive) | 18.7 µM (inactive) | 6.24 µM (inactive) | 16.7 µM (inactive) | 9.68 µM (inactive) | 19.6 µM (inactive) | 18.2 µM (inactive) | 12.4 µM (inactive) | 5.45 µM (inactive)
22 | O=C(O)COc1ccc(C(=O)/C(SS/C(C(=O)c2ccc(OCC(=O)O)c(Cl)c2Cl)=C2\C=C(c3ccc(Cl)cc3)SS2)=C2/C=C(c3ccc(Cl)cc3)SS2)c(Cl)c1Cl | 4.61 µM (inactive) | – | 11.6 µM (inactive) | 12.1 µM (inactive) | – | 6.7 µM (inactive) | 7.73 µM (inactive) | 25.1 µM (inactive) | 7.74 µM (inactive)
23 | CCN(CC)CCOc1ccc(C(=C2CCCCC2)c2ccc(OCCN(CC)CC)cc2)cc1 | 1.69 µM (inactive) | 1.07 µM (active) | 1.93 µM (inactive) | 1.46 µM (inactive) | – | – | 2.89 µM (inactive) | 1.27 µM (inactive) | 1.71 µM (inactive)
24 | c1ccc([B-]23Oc4ccccc4[NH+]2c2ccccc2O3)cc1 (configuration not stated) | 63.8 µM (inactive) | – | 46 µM (inactive) | – | 24.9 µM (inactive) | 77.4 µM (inactive) | > 100 µM (inactive) | – | –
25 | C=C(C)[C@H](O)C(O)CC(C)[C@@H]1CCC23CC12CCC1[C@@]2(C)CCC(OC(C)=O)C(C)(C)C2CC(OC2OC(COC(C)=O)C(O)C(O)C2O)[C@]13C (some centres not stated) | 5.32 µM (inactive) | – | 5.52 µM (inactive) | 6.12 µM (inactive) | 4.91 µM (inactive) | 7.16 µM (inactive) | 8.85 µM (inactive) | 4.53 µM (inactive) | 5.24 µM (inactive)
26 | COc1cc(C2c3cc4c(cc3[C@@H](Nc3ccc(N)cc3)C3COC(=O)[C@H]23)OCO4)cc(OC)c1O (some centres not stated) | 8.59 µM (inactive) | 1.45 µM (inactive) | 4.57 µM (inactive) | – | 1.59 µM (inactive) | 9.16 µM (inactive) | 9.89 µM (inactive) | 1.94 µM (inactive) | 2.91 µM (inactive)
